{"source": "patent US11013752B2", "about": "“Combination therapies for inner ear sensory hair cell regeneration/replacement” (Hough Ear Institute, priority 2016, dated 2021)", "key": {"[1]": {"system": "Madin-Darby Canine Kidney (MDCK) cells", "type": "cell-based", "method": "FIG. 19 depicts representative images of GSK3I-mediated proliferation in serum-starved MDCK cells. Cells were initially cultured in the presence of 10% fetal bovine serum (FBS) and then switched to serum-free media for 24 hours prior to the addition of 0.2% serum-containing media which included GSK3Is at the indicated concentrations in the presence of 10 μM EdU. Cells were cultured an additional 48 h prior to fixation and visualization of EdU-positive nuclei (green) via conjugation of AlexaFluor488 azide in a copper-catalyzed cycloaddition (“Click” reaction, Click-iT Edu, Life Technologies). Total nuclei were stained with DAPI (blue). NC, normal control or untreated cells cultured in the presence of 10% FBS throughout the experimental time course.\nEdU-positive nuclei from imaged fields of MDCK cells cultured as described in FIG. 13 were quantified using ImageJ software (NIH) and graphed as the averaged percentile of the number of EdU-positive cells relative to the total number of DAPI-stained nuclei in each field. A minimum of four fields of cells for each experimental condition were included in this analysis. (* and ***, p<0.05 and 0.001, respectively, for statistically significant increases in EdU-positive nuclei relative to untreated, serum-starved controls).\nTideglusib was procured from Cayman Chemical Company and performed a dose curve analysis under serum starvation conditions with Madin-Darby Canine Kidney (MDCK) cells in parallel with a series of commercially-available GSK3 inhibitors to ascertain its relative proliferative potential under mitotically-suppressed conditions in this well-established mammalian epithelial cell line. In these experiments, MDCK cells were cultured under serum starvation conditions for 24 hours prior to culturing cells for 48 hours in the presence of GSK3 inhibitors and 10 μM EdU (5-ethynyl-2′-deoxyuridine), a nucleoside analog that permanently marks cells that have undergone DNA replication."}, "[2]": {"system": "sensory epithelial region of postnatal day 3 OCs", "test": "EdU-labeling of mitotically-active cells in postnatal organ of Corti", "type": "cell-based", "conditions": "0.5 or 2.0 μM, 72 hours, vs vehicle", "method": "FIG. 21 depicts EdU-labeling of mitotically-active cells in the postnatal organ of Corti in response to Tideglusib treatment. Postnatal day 3 OCs were harvested and cultured in vitro for 24 hours prior to the addition of culture media containing 10 μM EdU in the presence of either vehicle alone (DMSO) or tideglusib (TIDE) at a final concentration of 0.5 or 2.0 μM. Organotypic cultures were cultured continuously in the presence of these agents for 72 hours prior to fixation and visualization of EdU-positive nuclei as described above. Images of the middle turn of the OC from each group are shown. Brackets denote the sensory epithelial region in each image.\nA targeted pilot experiment was conducted in which postnatal OCs were cultured continuously for 72 hours in the presence of EdU and either tideglusib or vehicle alone to assess whether the GSK3 inhibitor was capable of inducing a mitotic response in the sensory epithelial region of the OC. […] Follow-up analyses will indicate whether this tideglusib-induced proliferative response in the OC involves supporting cells, hair cells, or both, using cell type-specific markers."}, "[3]": {"system": "organotypic cultures of murine OCs", "test": "Hair cell counts in neomycin-damaged OC cultures treated with TIDE and/or siHES1 lipofection complexes", "type": "cell-based", "conditions": "for Hair Cell Counts ± SEM, Mid-apical turn / Hair Cell Counts ± SEM, Middle Turn: neomycin 0.7 mM 24 h, 10.0 μM TIDE, siHES1 20 nM lipofection complexes (FIG. 22)", "method": "(§1) FIG. 22 depicts hair cells (Myo7a+ cells) quantified from the mid-apical and middle regions of organotypic cultures of murine OCs following a 24 h exposure to neomycin (0.7 mM) and subsequent recovery in the presence or absence of the GSK3 inhibitor Tideglusib (TIDE) and/or siHES1 (20 nM) lipofection complexes (JetSI, Polyplus).\nas §1, with “23” for “22”\nas §1, with “25” for “22”, “mid-apical, middle,” for “mid-apical”, “mid-basal” for “middle”, “Polyplus). One set of NEO-ablated OCs were treated with TIDE then siHes1 in the presence of 2 ng/mL FGF-2 as a media supplement with the aim of potentially enhancing the effects of Tideglusib.” for “Polyplus).”\nThe protocol described above for BIO is used, substituting the addition of BIO for 10.0 μM Tideglusib (TIDE). A third treatment group is added, where Tideglusib is included in the culture medium after siHes1, parallel to the other protocols: on P4 or P5 (depending on whether there was an ototoxic insult to simulate hair cell loss) the control media is added with or without the inclusion of 10.0 μM TIDE; on P7 siHes1 is added in the presence of absence of TIDE; and on P9 10.0 μM Tideglusib is included in the media for a subset of cultures. On P11, all media is replaced with fresh media without any therapeutics. On P12, the tissues are fixed for immunolabeling. An example of comparative analyses from this treatment paradigm, following an exposure to the ototoxic aminoglycoside, NEO, is depicted in FIG. 22.\nThis experimental paradigm was again repeated adding additional treatment groups where FGF-2 was optionally included in the culture medium at 2 ng/mL at P5, P7, and P9 for a subset of cultures."}, "[4]": {"system": "postnatal (P3) murine (CD1) OC explants", "test": "siHes1 NPs with Tideglusib in neomycin-ablated OC explants", "type": "cell-based", "method": "Postnatal (P3) murine (CD1) OC explants were exposed to the ototoxic aminoglycoside, neomycin, for 24 h and then treated with 60 nM siHes1 NP alone; the GSK3 inhibitor, Tideglusib (TIDE), alone (2 μM); or a combination of 60 nM siHes1 NP with escalating doses of Tideglusib (0.5, 2, or 10 μM) for 6d prior to fixation and immunolabeling against the HC-specific marker, Myo7a. Middle turn as fixed reference among images shown.\nNEO-ablated OCs were treated with a suboptimal (60 nM) dose of siHes1 NPs either alone or in combination with escalating doses of TIDE. […] The sustained release profile of siHes1 NPs mimics staged application of the two therapeutics.\nApplicants hypothesized that the delayed, yet sustained, release of siHes1 from biocompatible PLGA NPs would recapitulate the therapeutic attributes of staged application of a GSK3 inhibitor and siRNA against Hes1 when the two drugs were co-administered. To test this hypothesis, a sub-maximal efficacious dose (60 nM) of siHes1 NPs with escalating doses (0.5, 2, and 10 μM) of the GSK3I, tideglusib, in order to have sufficient experimental margin were used to assess a regenerative dose-response profile in organotypic cultures of neomycin (NEO)—exposed organs of Corti (OCs). Using this paradigm, NEO-ablated OCs were subsequently cultured with siHes1 NPs alone or in combination with Tideglusib over the course of six days prior to fixation and immunohistological analyses."}, "[5]": {"system": "neonatal murine utricular maculae", "test": "BIO, siHes1 and GSI in neomycin-damaged utricle cultures", "type": "cell-based, CD1 mice", "conditions": "NEO-ablated utricles; BIO 2.5 μM, 20 nM Hes1 siRNA, GSI 5 μM", "method": "To assess whether BIO can enhance the therapeutic efficacy of Hes1 siRNA in regenerating HCs following a toxic insult, neonatal murine utricular tissues were exposed to neomycin (NEO) and then either left untreated or were treated with one or both of the therapeutic agents. After a total of 8 days in vitro, tissues were fixed and labeled with the HC marker, Myo7a. ###, p<0.001 difference in Myo7a-postive cells relative to untreated controls. *, **, and ***, p<0.05, 0.01, and 0.001, respectively, with respect to significant differences in the number of Myo7a-postive cells between treatment groups.\nOrganotypic cultures from murine utricular maculae (balance organ sensory epithelia) were cultured and then harvested on postnatal day 3 (P3) from CD1 mice. These explants were then cultured in appropriate media for twenty-four hours. […] All cultures were then maintained in media without either of the test agents for a final 24 h, after which tissues were fixed in 4% paraformaldehyde solution and subjected to immunolabeling with an antibody against the hair cell marker, myosin VIIa (Myo7a), and an appropriate secondary antibody for subsequent immunofluorescence-mediated quantification of HCs along the length of the cochlear spiral (FIGS. 14-17)."}, "[6]": {"system": "Hes1 transcript in IMO-2B1 murine inner ear cell line", "test": "Hes1 knockdown efficiency by RT-qPCR, transfected siHES1 molecules", "type": "cell-based", "conditions": "IMO-2B1, RNAiMAX, 48 hours after transfection", "excerpt": "FIG. 27 depicts reverse transcription-quantitative polymerase chain reaction (RT-qPCR) results from comparative dose curve analyses of Hes1 knockdown efficiency relative to mock-treated controls in a murine inner ear cell line (IMO-2B1), using two distinct siHES1 molecules with conserved target sites among mammalian Hes1 transcripts. SiRNA molecules were transfected into sub-confluent wells of IMO-2B1, using a commercial transfection agent (RNAiMAX, ThermoFisher Sci.). Forty-eight hours after transfection, total RNA was isolated and subjected to RT-qPCR analyses, using primers against Hes1 and the house keeping gene GAPDH. Relative Hes1 levels were determined by the 2^−ΔΔCT method (See Livak and Schmittgen (2001) Methods 25(4):402-408, incorporated by reference in its entirety). The apparent potency of molecule #7 for depleting Hes1 transcript levels was considerably greater than that of molecule #1, as optimal knockdown using molecule #7 was observed using as little as 2 nM siRNA (relative to ˜20 nM required for molecule #1)."}}, "note": "Entries after “also recorded” stand apart in the source; their conditions may differ."}
{"compound": "[Cl-].[Li+]", "note": "[LiC1, lithium chloride]", "values": [{"measurement": "EdU-positive cells", "setting": "[1]; 10 mM, relative to identical dose of sodium chloride", "value": "increased numbers of EdU-positive cells"}]}
{"compound": "O=c1sn(-c2cccc3ccccc23)c(=O)n1Cc1ccccc1", "note": "[TIDE, tideglusib]", "values": [{"measurement": "mitotic response (EdU-positive nuclei) in sensory epithelial region", "setting": "[2]", "value": "greater incidence of EdU-positive nuclei; also recorded: markedly greater mitotic response in the sensory epithelial region"}, {"measurement": "Hair Cell Counts ± SEM, Mid-apical turn", "setting": "[3]", "value": "9.1 ± 1.6"}, {"measurement": "Hair Cell Counts ± SEM, Middle Turn", "setting": "[3]", "value": "2.8 ± 0.8"}, {"measurement": "siHes1 NP regenerative efficacy, middle turn", "setting": "[4]; 10 μM Tideglusib with 60 nM siHes1 NPs, relative to siHes1 NPs alone", "value": "statistically-significant increases"}, {"measurement": "siHes1 NP regenerative efficacy, basal turn", "setting": "[4]; 2 and 10 μM Tideglusib with 60 nM siHes1 NPs, relative to siHes1 NPs alone", "value": "statistically-significant increases"}, {"measurement": "HC numbers / densities with combined treatment", "setting": "[4]; NEO-ablated OCs, 60 nM siHes1 NP plus Tideglusib 0.5, 2 or 10 μM, 6 d", "value": "concentration-dependent enhancement of siHes1 NP-induced hair cell (HC) regeneration"}, {"measurement": "regenerative response (HC numbers)", "setting": "[4]; Tideglusib alone (2 μM), NEO-ablated OCs", "value": "did not induce a statistically significant regenerative response"}, {"measurement": "siHes1 NP regenerative efficacy, mid-apical region", "setting": "[4]; Tideglusib with 60 nM siHes1 NPs vs siHes1 NPs alone", "value": "no statistically-significant differences between the treatment groups"}]}
{"compound": "FGF-2: basic fibroblast growth factor used as media supplement", "values": [{"measurement": "effect of FGF-2 media supplement on HC regeneration", "setting": "[3]; 2 ng/mL FGF-2, NEO-ablated OCs, with or without TIDE then siHes1", "value": "did not elicit a therapeutic response on its own; also recorded: potentiated the therapeutic effects of TIDE/siHES1 treatment through the mid-basal turn of the OC"}]}
{"compound": "C[C@H](NC(=O)Cc1cc(F)cc(F)c1)C(=O)N[C@@H]1C(=O)N(C)c2ccccc2-c2ccccc21", "note": "[GSI, deshydroxy LY 411575]", "values": [{"measurement": "HC numbers (Myo7a-positive cells) in striolar/extrastriolar region", "setting": "[5]", "value": "increased HC numbers within the striolar region"}]}
{"compound": "Cc1c[nH]c(-c2cnc(NCCNc3ccc(C#N)cn3)nc2-c2ccc(Cl)cc2Cl)n1", "note": "[CHIR-99021]", "values": [{"measurement": "number of EdU-positive nuclei", "setting": "[1]; 10 μM, relative to untreated serum-starved cells", "value": "statistically insignificant relative to untreated, serum-starved cells"}, {"measurement": "mitotically-active cells (EdU-positive nuclei)", "setting": "[1]; low-dose (0.1 μM), serum starvation", "value": "robust, statistically-significant increase in mitotically-active cells"}]}
{"compound": "O=C1Nc2cc(Br)ccc2/C1=C1/Nc2ccccc2/C1=N\\O", "note": "[BIO, 6-bromoindirubin-3′-oxime]", "values": [{"measurement": "HC numbers (Myo7a-positive cells) in striolar/extrastriolar region", "setting": "[5]", "value": "increased HC numbers within the striolar region"}, {"measurement": "proliferative response (EdU-positive nuclei)", "setting": "[1]; serum-starved MDCK, 48 h, across dose range tested (up to 10 μM)", "value": "reduced numbers of EdU-positive nuclie"}]}
{"compound": "Molecule 1: siRNA, murine Hes1 mRNA nt 239-257, SEQ ID NO: 1 and 2 (chain 1 CAGCUGAUAUAAUGGAGAATT; chain 2 UUCUCCAUUAUAUCAGCUGTT; chemistry not given here)", "values": [{"measurement": "siRNA concentration for optimal Hes1 knockdown", "setting": "[6]", "value": "~20", "unit": "nM"}]}
{"compound": "NC[C@@H]1O[C@H](O[C@H]2[C@@H](O)[C@H](O[C@@H]3[C@@H](O)[C@H](N)C[C@H](N)[C@H]3O[C@H]3O[C@H](CN)[C@@H](O)[C@H](O)[C@H]3N)O[C@@H]2CO)[C@H](N)[C@@H](O)[C@@H]1O", "note": "[NEO alone, neomycin]", "values": [{"measurement": "Hair Cell Counts ± SEM, Mid-apical turn", "setting": "[3]", "value": "5.1 ± 1.1"}, {"measurement": "Hair Cell Counts ± SEM, Middle Turn", "setting": "[3]", "value": "2.5 ± 0.8"}]}
{"compound": "Molecule 7: siRNA, human Hes1 mRNA nt 673-691, SEQ ID NO: 13 and 14 (chain 1 ACUGCAUGACCCAGAUCAA; chain 2 UUGAUCUGGGUCAUGCAGU; listed as RNA, chemistry not given here)", "values": [{"measurement": "siRNA concentration for optimal Hes1 knockdown", "setting": "[6]", "value": 2, "unit": "nM"}]}
